Data reported in patent publication US20250346574A1, “PYRIDINYL SUBSTITUTED OXOISOINDOLINE COMPOUNDS FOR THE TREATMENT OF CANCER” (Bristol-Myers Squibb Company, priority 2021, published 2025).

How the values were obtained:
Helios [1] = molecular target: T1, Helios (Homo sapiens, UniProt Q96SW2+Q9UKS7); assay: Helios Cellular Degradation Assay (Jurkat cells); type: cell-based; set-up: fluorescently labelled antibodies against Helios, Ikaros and Aiolos; endogenous in cells; host or cells: Jurkat cells; settings: incubated 72 h, Helios-PE antibody staining, flow cytometry, read-out: Helios Jurkat IC50
T1 sequence (Q9UKS7 whole entry): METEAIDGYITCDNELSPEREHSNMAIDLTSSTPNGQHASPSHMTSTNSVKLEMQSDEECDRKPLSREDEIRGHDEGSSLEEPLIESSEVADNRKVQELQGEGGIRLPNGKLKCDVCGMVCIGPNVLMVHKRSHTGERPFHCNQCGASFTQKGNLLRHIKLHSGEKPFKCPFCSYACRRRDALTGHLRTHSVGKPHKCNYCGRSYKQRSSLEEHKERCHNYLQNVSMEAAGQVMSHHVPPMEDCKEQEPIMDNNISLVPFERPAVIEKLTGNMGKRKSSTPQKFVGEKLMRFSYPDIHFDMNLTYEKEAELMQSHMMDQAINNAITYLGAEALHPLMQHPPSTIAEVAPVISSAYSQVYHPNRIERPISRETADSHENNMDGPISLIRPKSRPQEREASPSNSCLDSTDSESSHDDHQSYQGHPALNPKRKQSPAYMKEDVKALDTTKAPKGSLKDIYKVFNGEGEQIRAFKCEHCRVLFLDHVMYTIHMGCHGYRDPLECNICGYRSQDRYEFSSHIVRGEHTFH
T1 sequence (Q96SW2 whole entry): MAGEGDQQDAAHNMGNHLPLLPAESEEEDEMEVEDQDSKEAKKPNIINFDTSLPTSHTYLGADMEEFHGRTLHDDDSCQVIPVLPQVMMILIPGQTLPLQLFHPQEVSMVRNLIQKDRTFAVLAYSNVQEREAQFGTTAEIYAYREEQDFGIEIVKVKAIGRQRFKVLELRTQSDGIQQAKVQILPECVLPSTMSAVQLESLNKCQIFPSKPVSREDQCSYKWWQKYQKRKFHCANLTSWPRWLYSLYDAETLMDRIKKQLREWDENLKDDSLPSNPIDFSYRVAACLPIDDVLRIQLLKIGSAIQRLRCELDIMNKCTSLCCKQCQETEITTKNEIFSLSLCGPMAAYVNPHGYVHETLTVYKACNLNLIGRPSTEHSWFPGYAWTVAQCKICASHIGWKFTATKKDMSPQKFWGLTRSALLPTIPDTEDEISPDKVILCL
T1 sequence (Q16531 whole entry partner): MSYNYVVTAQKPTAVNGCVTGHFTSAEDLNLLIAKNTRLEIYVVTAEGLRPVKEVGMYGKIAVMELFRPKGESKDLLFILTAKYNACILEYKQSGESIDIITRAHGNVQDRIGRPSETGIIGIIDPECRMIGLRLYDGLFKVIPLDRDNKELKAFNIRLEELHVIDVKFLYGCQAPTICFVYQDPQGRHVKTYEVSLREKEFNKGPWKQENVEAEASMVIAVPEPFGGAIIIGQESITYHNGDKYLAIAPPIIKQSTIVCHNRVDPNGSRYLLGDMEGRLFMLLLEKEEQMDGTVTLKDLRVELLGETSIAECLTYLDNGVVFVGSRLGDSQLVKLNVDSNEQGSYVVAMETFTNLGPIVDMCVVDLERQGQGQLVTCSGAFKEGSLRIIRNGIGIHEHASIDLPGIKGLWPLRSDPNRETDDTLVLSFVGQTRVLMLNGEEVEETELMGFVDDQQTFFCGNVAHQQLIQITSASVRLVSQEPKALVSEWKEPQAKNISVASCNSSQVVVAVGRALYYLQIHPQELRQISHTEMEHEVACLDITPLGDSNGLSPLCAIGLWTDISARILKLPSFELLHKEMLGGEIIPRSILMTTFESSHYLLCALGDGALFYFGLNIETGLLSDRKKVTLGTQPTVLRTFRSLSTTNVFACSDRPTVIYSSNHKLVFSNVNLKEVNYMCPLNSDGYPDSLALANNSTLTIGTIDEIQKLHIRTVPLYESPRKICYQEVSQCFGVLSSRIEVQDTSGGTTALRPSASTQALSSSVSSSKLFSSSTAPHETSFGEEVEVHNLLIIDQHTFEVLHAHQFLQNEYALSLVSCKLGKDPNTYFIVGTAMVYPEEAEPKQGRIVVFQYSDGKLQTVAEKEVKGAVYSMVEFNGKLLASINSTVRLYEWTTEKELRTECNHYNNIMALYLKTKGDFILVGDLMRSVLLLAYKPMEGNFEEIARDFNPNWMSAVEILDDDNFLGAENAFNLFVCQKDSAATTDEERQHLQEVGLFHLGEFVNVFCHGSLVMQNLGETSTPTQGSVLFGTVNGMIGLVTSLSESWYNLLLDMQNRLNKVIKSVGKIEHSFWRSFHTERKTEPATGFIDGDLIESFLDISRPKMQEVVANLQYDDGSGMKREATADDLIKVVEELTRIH
Description: Jurkat cells were plated at 80,000 cells/well in 40 μL RPMI+10% FBS in a 384 well cell culture plate prior to using acoustic dispensing technology for adding compound of interest. Cell cultures were incubated for 72 h at 37° C. and 5% CO2. In order to facilitate analysis, cell cultures were spun down at 200 rpm for 5 min and the supernatant was discarded. After shaking the plate to dislodge the cell pellet, cells were resuspended in 50 μL of Fixation Buffer (eBioScience FoxP3 buffer set 00-5523-00) for 60 min at room temperature. After centrifuging and discarding the supernatant, cells were permeabilized with 50 μL of Permeabilization buffer (eBioScience FoxP3 buffer set 00-5523-00) for 10 min at room temperature. Following permeabilization, cells were spun down and the supernatant was replaced with 20 μL fluorescently labelled antibodies against Helios, Ikaros and Aiolos or corresponding Isotype controls in 1× Permeabilization buffer (Ikaros-Alexa488 [Biolegend, Cat #368408, 1:50], Helios-PE [CST, Cat #29360, 1:50], Aiolos-Alexa647 [Biolegend, Cat #371106Biolegend, 1:25]) and staining reactions were incubated for 1 h at room temperature; protected from light. […] Stained cells were resuspended in 25 μL of flow cytometry staining buffer (PBS+0.2% BSA) and analyzed using an Intellicyt Ique Plus flow cytometer.

Helios [2] = molecular target: T1, Helios; assay: Helios Human T Regulatory Cells Degradation Assay; type: cell-based; set-up: fluorescently labelled antibodies against Helios in 1× Permeabilization buffer; endogenous in cells; host or cells: cryopreserved human T regulatory cells; settings: cryopreserved human T regulatory cells, incubated 20 hours, Helios-APC antibody staining, flow cytometry; read-out: hTreg Helios DC50
Procedure, shortened: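 Cryopreserved human Treg cells thawed in RPMI+10% FBS+20 ng/mL IL-2, rested 3 h, then incubated with compound 20 hours at 37° C, 5% CO2. Near-IR viability stain, permeabilization, flow cytometry read-out.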

DC50 (Helios [1]) [nM] | DC50 (Helios [2]) [nM] | SMILES
736 |  | NC(=O)C1CCN1Cc1ccnc(-c2ccc3c(c2)CN(C2CCC(=O)NC2=O)C3=O)c1 (centres unmarked) [Example 79, 1-((2-(2-(2,6-dioxopiperidin-3-yl)-1-oxoisoindolin-5-yl)pyridin-4-yl)methyl) azetidine-2-carboxamide]
 | 140 | O=C1CCC(N2Cc3cc(-c4nccc(CN5CCC(F)CC5)c4F)ccc3C2=O)C(=O)N1 (centres unmarked) [Example 260, 3-(5-(3-fluoro-4-((4-fluoropiperidin-1-yl)methyl)pyridin-2-yl)-1-oxoisoindolin-2-yl)piperidine-2,6-dione]
 | ≥ 10000 | O=C1CCC(N2Cc3cc(-c4nccc(CN5CCC(F)(F)CC5)c4F)ccc3C2=O)C(=O)N1 (centres unmarked) [Example 261, 3-(5-(4-((4,4-difluoropiperidin-1-yl)methyl)-3-fluoropyridin-2-yl)-1-oxoisoindolin-2-yl)piperidine-2,6-dione]
 | ≥ 10000 | Cc1nnc2n1CCN(Cc1ccnc(-c3ccc4c(c3)CN(C3CCC(=O)NC3=O)C4=O)c1F)C2 (centres unmarked) [Example 262, 3-(5-(3-fluoro-4-((3-methyl-5,6-dihydro-[1,2,4]triazolo[4,3-a]pyrazin-7(8H)-yl)methyl)pyridin-2-yl)-1-oxoisoindolin-2-yl)piperidine-2,6-dione]
 | ≥ 10000 | CC(=O)N1CCCC12CCN(Cc1ccnc(-c3ccc4c(c3)CN(C3CCC(=O)NC3=O)C4=O)c1F)C2 (centres unmarked) [Example 270, 3-(5-(4-((1-acetyl-1,7-diazaspiro[4.4]nonan-7-yl)methyl)-3-fluoropyridin-2-yl)-1-oxoisoindolin-2-yl)piperidine-2,6-dione]
 | ≥ 10000 | COC(=O)N1CCCC12CCN(Cc1ccnc(-c3ccc4c(c3)CN(C3CCC(=O)NC3=O)C4=O)c1F)C2 (centres unmarked) [Example 271, methyl 7-((2-(2-(2,6-dioxopiperidin-3-yl)-1-oxoisoindolin-5-yl)-3-fluoropyridin-4-yl)methyl)-1,7-diazaspiro[4.4]nonane-1-carboxylate]
 | 280 | COC(=O)N1CCC2(CN(Cc3ccnc(-c4ccc5c(c4)CN(C4CCC(=O)NC4=O)C5=O)c3F)C2)C1 (centres unmarked) [Example 273, methyl 2-((2-(2-(2,6-dioxopiperidin-3-yl)-1-oxoisoindolin-5-yl)-3-fluoropyridin-4-yl)methyl)-2,6-diazaspiro[3.4]octane-6-carboxylate]
 | ≥ 10000 | CC(=O)N1CC2CCCN(Cc3ccnc(-c4ccc5c(c4)CN(C4CCC(=O)NC4=O)C5=O)c3F)C2C1 (centres unmarked) [Example 274, 3-(5-(4-((6-acetyloctahydro-1H-pyrrolo[3,4-b]pyridin-1-yl)methyl)-3-fluoropyridin-2-yl)-1-oxoisoindolin-2-yl)piperidine-2,6-dione]
 | ≥ 10000 | COC(=O)N1CC2CCCN(Cc3ccnc(-c4ccc5c(c4)CN(C4CCC(=O)NC4=O)C5=O)c3F)C2C1 (centres unmarked) [Example 275, methyl 1-((2-(2-(2,6-dioxopiperidin-3-yl)-1-oxoisoindolin-5-yl)-3-fluoropyridin-4-yl)methyl)octahydro-6H-pyrrolo[3,4-b]pyridine-6-carboxylate]
 | 31.9 | O=C1CCC(N2Cc3c(ccc(-c4nccc(CN5CC[C@H](CO)C5)c4F)c3F)C2=O)C(=O)N1 (stereo partly drawn) [Example 277, 3-(4-fluoro-5-(3-fluoro-4-(((S)-3-(hydroxymethyl)pyrrolidin-1-yl)methyl)pyridin-2-yl)-1-oxoisoindolin-2-yl)piperidine-2,6-dione]
 | 34.3 | CC(C)(O)[C@H]1CCN(Cc2ccnc(-c3ccc4c(c3F)CN(C3CCC(=O)NC3=O)C4=O)c2F)C1 (stereo partly drawn) [Example 279, 3-(4-fluoro-5-(3-fluoro-4-(((S)-3-(2-hydroxypropan-2-yl)pyrrolidin-1-yl)methyl)pyridin-2-yl)-1-oxoisoindolin-2-yl)piperidine-2,6-dione]
 | ≥ 10000 | O=C1CCC(N2Cc3c(ccc(-c4nccc(CN5CCC(O)(c6ccccc6)CC5)c4F)c3F)C2=O)C(=O)N1 (centres unmarked) [Example 280, 3-(4-fluoro-5-(3-fluoro-4-((4-hydroxy-4-phenylpiperidin-1-yl)methyl)pyridin-2-yl)-1-oxoisoindolin-2-yl)piperidine-2,6-dione]
 | ≥ 10000 | O=C1CCC(N2Cc3c(ccc(-c4nccc(CN5CCc6c(ccnc6Cl)C5)c4F)c3F)C2=O)C(=O)N1 (centres unmarked) [Example 283, 3-(5-(4-((5-chloro-3,4-dihydro-2,6-naphthyridin-2(1H)-yl)methyl)-3-fluoropyridin-2-yl)-4-fluoro-1-oxoisoindolin-2-yl) piperidine-2,6-dione]

Continued, molecule first:

SMILES | DC50 (Helios [1]) [nM] | DC50 (Helios [2]) [nM]
O=C1CCC(N2Cc3cc(-c4nccc(CN5CCn6cnnc6C5)c4F)ccc3C2=O)C(=O)N1 (centres unmarked) [Example 263, 3-(5-(4-((5,6-dihydro-[1,2,4]triazolo[4,3-a]pyrazin-7(8H)-yl)methyl)-3-fluoropyridin-2-yl)-1-oxoisoindolin-2-yl)piperidine-2,6-dione] |  | 1230
Cc1c2c(nn1C)CCN(Cc1ccnc(-c3ccc4c(c3)CN(C3CCC(=O)NC3=O)C4=O)c1F)C2 (centres unmarked) [Example 265, 3-(5-(4-((2,3-dimethyl-2,4,6,7-tetrahydro-5H-pyrazolo[4,3-c]pyridin-5-yl)methyl)-3-fluoropyridin-2-yl)-1-oxoisoindolin-2-yl)piperidine-2,6-dione] |  | ≥ 10000
O=C1CCC(N2Cc3cc(-c4nccc(CN5CCn6c(nnc6C(F)(F)F)C5)c4F)ccc3C2=O)C(=O)N1 (centres unmarked) [Example 266, 3-(5-(3-fluoro-4-((3-(trifluoromethyl)-5,6-dihydro-[1,2,4]triazolo[4,3-a]pyrazin-7(8H)-yl)methyl)pyridin-2-yl)-1-oxoisoindolin-2-yl)piperidine-2,6-dione] |  | ≥ 10000
O=C1CCC(N2Cc3cc(-c4nccc(CN5CCc6c(ccnc6Cl)C5)c4F)ccc3C2=O)C(=O)N1 (centres unmarked) [Example 267, 3-(5-(4-((5-chloro-3,4-dihydro-2,6-naphthyridin-2(1H)-yl)methyl)-3-fluoropyridin-2-yl)-1-oxoisoindolin-2-yl)piperidine-2,6-dione] |  | ≥ 10000
O=C1CCC(N2Cc3cc(-c4nccc(CN5CCc6cccc(Cl)c6C5)c4F)ccc3C2=O)C(=O)N1 (centres unmarked) [Example 268, 3-(5-(4-((8-chloro-3,4-dihydroisoquinolin-2(1H)-yl)methyl)-3-fluoropyridin-2-yl)-1-oxoisoindolin-2-yl)piperidine-2,6-dione] |  | ≥ 10000
CC(=O)N1CCC2(CN(Cc3ccnc(-c4ccc5c(c4)CN(C4CCC(=O)NC4=O)C5=O)c3F)C2)C1 (centres unmarked) [Example 272, 3-(5-(4-((6-acetyl-2,6-diazaspiro[3.4]octan-2-yl)methyl)-3-fluoropyridin-2-yl)-1-oxoisoindolin-2-yl)piperidine-2,6-dione] |  | 280
CC(C)(O)C1CCN(Cc2ccnc(-c3ccc4c(c3F)CN(C3CCC(=O)NC3=O)C4=O)c2F)CC1 (centres unmarked) [Example 276, 3-(4-fluoro-5-(3-fluoro-4-((4-(2-hydroxypropan-2-yl)piperidin-1-yl)methyl)pyridin-2-yl)-1-oxoisoindolin-2-yl)piperidine-2,6-dione] |  | 28
CC(C)(O)[C@@H]1CCN(Cc2ccnc(-c3ccc4c(c3F)CN(C3CCC(=O)NC3=O)C4=O)c2F)C1 (stereo partly drawn) [Example 278, 3-(4-fluoro-5-(3-fluoro-4-(((R)-3-(2-hydroxypropan-2-yl)pyrrolidin-1-yl)methyl)pyridin-2-yl)-1-oxoisoindolin-2-yl)piperidine-2,6-dione] |  | 31.8
CC(C)(O)C1CN(Cc2ccnc(-c3ccc4c(c3F)CN(C3CCC(=O)NC3=O)C4=O)c2F)C1 (centres unmarked) [Example 281, 3-(4-fluoro-5-(3-fluoro-4-((3-(2-hydroxypropan-2-yl)azetidin-1-yl)methyl)pyridin-2-yl)-1-oxoisoindolin-2-yl)piperidine-2,6-dione] |  | 22.1
O=C1CCC(N2Cc3c(ccc(-c4nccc(CN5CCn6c(nnc6C(F)(F)F)C5)c4F)c3F)C2=O)C(=O)N1 (centres unmarked) [Example 282, 3-(4-fluoro-5-(3-fluoro-4-((3-(trifluoromethyl)-5,6-dihydro-[1,2,4]triazolo[4,3-a]pyrazin-7(8H)-yl)methyl)pyridin-2-yl)-1-oxoisoindolin-2-yl)piperidine-2,6-dione] |  | ≥ 10000
